Assay results published in paper PMC7411887, “New Paracyclophanylthiazoles with Anti-Leukemia Activity: Design, Synthesis, Molecular Docking, and Mechanistic Studies” (Molecules, 2020).

Columns and labels:
Test in all cases: NCI single-dose screen (SRB)
Format in all cases: cell-based
ACHN = settings: Homo sapiens; Renal Cancer ACHN; 10^−5 M; read-out: Growth inhibition percentage
Method: (§1) The methodology of the NCI anticancer screening was described in detail elsewhere (http://www.dtp.nci.nih.gov). […] Tested compounds were added to the culture at a single concentration (10^−5 M) and the cultures were incubated for 48 h. End-point determinations were made with a protein binding dye, SRB. Results for each tested compound were reported as the percentage growth of the treated cells when compared to the untreated control cells. The percentage growth was evaluated spectrophotometrically versus controls not treated with test agents. All experiments were repeated three times (Table 1).
(§2) Briefly, the protocol was performed on 60 human tumor cell lines derived from different nine neoplastic diseases. […] If the results obtained met selection criteria, then the compound was tested again on all 60 cell lines in 5× 10-fold dilutions with the top dose being 10^−4 M or 150 μg/mL. Detailed methods are described in the Supplementary Materials related to this article.
(§3) on their site (http://www.dtp.nci.nih.gov). But briefly, the protocol performed at sixty human
(§4) National Cancer Institute, Bethesda, USA. If the results obtained meet selection criteria, then the
(§5) 10-4 molar or 150 μg/mL. […]

BT-549 = settings: Homo sapiens; Breast Cancer BT-549; 10^−5 M; read-out: Growth inhibition percentage
Method: as §1, §2, §3, §4, §5

COLO 205 = settings: Homo sapiens; Colon Cancer COLO 205; 10^−5 M; read-out: Growth inhibition percentage
Method: as §1, §2, §3, §4, §5

DU-145 = settings: Homo sapiens; Prostate Cancer DU-145; 10^−5 M; read-out: Growth inhibition percentage
Method: as §1, §2, §3, §4, §5

EKVX = settings: Homo sapiens; Non-Small-Cell Lung Cancer EKVX; 10^−5 M; read-out: Growth inhibition percentage
Method: as §1, §2, §3, §4, §5

HCT-116 = settings: Homo sapiens; Colon Cancer HCT-116; 10^−5 M; read-out: Growth inhibition percentage
Method: as §1, §2, §3, §4, §5

HCT-15 = settings: Homo sapiens; Colon Cancer HCT-15; 10^−5 M; read-out: Growth inhibition percentage
Method: as §1, §2, §3, §4, §5

HOP-92 = settings: Homo sapiens; Non-Small-Cell Lung Cancer HOP-92; 10^−5 M; read-out: Growth inhibition percentage
Method: as §1, §2, §3, §4, §5

HS 578T = settings: Homo sapiens; Breast Cancer HS 578T; 10^−5 M; read-out: Growth inhibition percentage
Method: as §1, §2, §3, §4, §5

HT29 = settings: Homo sapiens, HT-29; Colon Cancer HT29; 10^−5 M; read-out: Growth inhibition percentage
Method: as §1, §2, §3, §4, §5

IGROV1 = settings: Homo sapiens, IGROV-1; Ovarian Cancer IGROV1; 10^−5 M; read-out: Growth inhibition percentage
Method: as §1, §2, §3, §4, §5

M14 = settings: Homo sapiens; Melanoma M14; 10^−5 M; read-out: Growth inhibition percentage
Method: as §1, §2, §3, §4, §5

MDA-MB-231/ATCC = settings: Homo sapiens; Breast Cancer MDA-MB-231/ATCC; 10^−5 M; read-out: Growth inhibition percentage
Method: as §1, §2, §3, §4, §5

MDA-MB-468 = settings: Homo sapiens; Breast Cancer MDA-MB-468; 10^−5 M; read-out: Growth inhibition percentage
Method: as §1, §2, §3, §4, §5

NCI-H226 = settings: Homo sapiens; Non-Small-Cell Lung Cancer NCI-H226; 10^−5 M; read-out: Growth inhibition percentage
Method: as §1, §2, §3, §4, §5

NCI-H23 = settings: Homo sapiens; Non-Small-Cell Lung Cancer NCI-H23; 10^−5 M; read-out: Growth inhibition percentage
Method: as §1, §2, §3, §4, §5

NCI-H460 = settings: Homo sapiens; Non-Small-Cell Lung Cancer NCI-H460; 10^−5 M; read-out: Growth inhibition percentage
Method: as §1, §2, §3, §4, §5

NCI/ADR-RES = settings: Homo sapiens; Ovarian Cancer NCI/ADR-RES; 10^−5 M; read-out: Growth inhibition percentage
Method: as §1, §2, §3, §4, §5

OVCAR-5 = settings: Homo sapiens; Ovarian Cancer OVCAR-5; 10^−5 M; read-out: Growth inhibition percentage
Method: as §1, §2, §3, §4, §5

PC-3 = settings: Homo sapiens; Prostate Cancer PC-3; 10^−5 M; read-out: Growth inhibition percentage
Method: as §1, §2, §3, §4, §5

SF-539 = settings: Homo sapiens; CNS Cancer SF-539; 10^−5 M; read-out: Growth inhibition percentage
Method: as §1, §2, §3, §4, §5

SK-MEL-28 = settings: Homo sapiens; Melanoma SK-MEL-28; 10^−5 M; read-out: Growth inhibition percentage
Method: as §1, §2, §3, §4, §5

SK-MEL-2 = settings: Homo sapiens; Melanoma SK-MEL-2; 10^−5 M; read-out: Growth inhibition percentage
Method: as §1, §2, §3, §4, §5

SK-MEL-5 = settings: Homo sapiens; Melanoma SK-MEL-5; 10^−5 M; read-out: Growth inhibition percentage
Method: as §1, §2, §3, §4, §5

SN12C = settings: Homo sapiens; Renal Cancer SN12C; 10^−5 M; read-out: Growth inhibition percentage
Method: as §1, §2, §3, §4, §5

SNB-19 = settings: Homo sapiens; CNS Cancer SNB-19; 10^−5 M; read-out: Growth inhibition percentage
Method: as §1, §2, §3, §4, §5

SNB-75 = settings: Homo sapiens; CNS Cancer SNB-75; 10^−5 M; read-out: Growth inhibition percentage
Method: as §1, §2, §3, §4, §5

SR = settings: Homo sapiens; Leukemia SR; 10^−5 M; read-out: Growth inhibition percentage
Method: as §1, §2, §3, §4, §5

U251 = settings: Homo sapiens, U-251; CNS Cancer U251; 10^−5 M; read-out: Growth inhibition percentage
Method: as §1, §2, §3, §4, §5

UACC-257 = settings: Homo sapiens; Melanoma UACC-257; 10^−5 M; read-out: Growth inhibition percentage
Method: as §1, §2, §3, §4, §5

Row | SMILES | inhibition at 10 µM (ACHN) | inhibition at 10 µM (BT-549) | inhibition at 10 µM (COLO 205) | inhibition at 10 µM (DU-145) | inhibition at 10 µM (EKVX) | inhibition at 10 µM (HCT-116) | inhibition at 10 µM (HCT-15) | inhibition at 10 µM (HOP-92) | inhibition at 10 µM (HS 578T) | inhibition at 10 µM (HT29) | inhibition at 10 µM (IGROV1) | inhibition at 10 µM (M14) | inhibition at 10 µM (MDA-MB-231/ATCC) | inhibition at 10 µM (MDA-MB-468) | inhibition at 10 µM (NCI-H226) | inhibition at 10 µM (NCI-H23) | inhibition at 10 µM (NCI-H460) | inhibition at 10 µM (NCI/ADR-RES) | inhibition at 10 µM (OVCAR-5) | inhibition at 10 µM (PC-3) | further results
1 | COC(=O)/C=C1/S/C(=N/NC(=O)c2cc3ccc2CCc2ccc(cc2)CC3)N(C2CC2)C1=O [Compound 3f] | 17.8% | 26.8% | 4.48% | 6.2% | 12.2% | 24.6% | 29.4% | 16.2% | 5.01% | 24% | 7.2% | 19.2% | 3.5% | 29.7% | 9.41% | 9.32% | 1.98% | 7.72% | 0% | 18.9% | inhibition at 10 µM (SF-539): 0%; inhibition at 10 µM (SK-MEL-28): 10.3%; inhibition at 10 µM (SK-MEL-2): 13.5%; inhibition at 10 µM (SK-MEL-5): 14.5%; inhibition at 10 µM (SN12C): 17.1%; inhibition at 10 µM (SNB-19): 11.3%; inhibition at 10 µM (SNB-75): 24.7%; inhibition at 10 µM (SR): 39.1%; inhibition at 10 µM (U251): 20.3%; inhibition at 10 µM (UACC-257): 16.3%
2 | COC(=O)C=C1SC(=NNC(=O)c2cc3ccc2CCc2ccc(cc2)CC3)N(c2ccccc2)C1=O [Compound 3a] | 30.7% | 64.5% | 52.3% | 49.1% | 41% | 96% | 99.7% | 24.7% | 22.1% | 113% | 94% | 46.9% | 67.5% | 100% | 26.2% | 59.6% | 39.4% | 68.6% | 51.8% | 136% | inhibition at 10 µM (SF-539): 122%; inhibition at 10 µM (SK-MEL-28): 17.5%; inhibition at 10 µM (SK-MEL-2): 13%; inhibition at 10 µM (SK-MEL-5): 30.6%; inhibition at 10 µM (SN12C): 77.5%; inhibition at 10 µM (SNB-19): 60.1%; inhibition at 10 µM (SNB-75): 54.3%; inhibition at 10 µM (SR): 116%; inhibition at 10 µM (U251): 84.2%; inhibition at 10 µM (UACC-257): 30.8%
3 | COC(=O)C=C1SC(=Nc2cccnc2)N(NC(=O)c2cc3ccc2CCc2ccc(cc2)CC3)C1=O [Compound 3c, Methyl (E)-2-((E)-3-[2.2]paracyclophanyl)amido-4-oxo-2-(pyridin-3-ylimino)-thiazolidin-5-ylidene)acetate] | 11% | 18.4% | 0% | 0% | 2.61% | 6.35% | 11.8% | 8.14% | 0% | 7.71% | 15.4% | 7.99% | 10.6% | 18% | 7.48% | 9.18% | 0.75% | 4.7% | 0.61% | 18.2% | inhibition at 10 µM (SF-539): 11.6%; inhibition at 10 µM (SK-MEL-28): 0.86%; inhibition at 10 µM (SK-MEL-2): 0%; inhibition at 10 µM (SK-MEL-5): 3.64%; inhibition at 10 µM (SN12C): 8.87%; inhibition at 10 µM (SNB-19): 16.6%; inhibition at 10 µM (SNB-75): 0.25%; inhibition at 10 µM (SR): 74.2%; inhibition at 10 µM (U251): 14.7%; inhibition at 10 µM (UACC-257): 0.83%
4 | C=CCN1C(=O)C(=CC(=O)OC)SC1=NNC(=O)c1cc2ccc1CCc1ccc(cc1)CC2 [Compound 3d] | 12.2% | 38.3% | 0% | 0% | 9.16% | 46% | 33.1% | 18.6% | 6.41% | 54% | 10.8% | 21.1% | 2.27% | 23.7% | 12.4% | 11.8% | 0% | 10.5% | 3.9% | 51.6% | inhibition at 10 µM (SF-539): 0.33%; inhibition at 10 µM (SK-MEL-28): 0%; inhibition at 10 µM (SK-MEL-2): 2.7%; inhibition at 10 µM (SK-MEL-5): 7.53%; inhibition at 10 µM (SN12C): 13.1%; inhibition at 10 µM (SNB-19): 15.3%; inhibition at 10 µM (SNB-75): 21.9%; inhibition at 10 µM (SR): 98.2%; inhibition at 10 µM (U251): 18.2%; inhibition at 10 µM (UACC-257): 8.89%
5 | COC(=O)C=C1SC(=NNC(=O)c2cc3ccc2CCc2ccc(cc2)CC3)N(Cc2ccccc2)C1=O [Compound 3b] | 34.2% | 89.7% | 27.3% | 16.8% | 22.3% | 50.5% | 72.2% | 24.5% | 12.6% | 87.6% | 57.7% | 36.6% | 43.2% | 78.9% | 35.2% | 22.6% | 6.29% | 29.6% | 34.6% | 82.2% | inhibition at 10 µM (SF-539): 56.7%; inhibition at 10 µM (SK-MEL-28): 0%; inhibition at 10 µM (SK-MEL-2): 14.4%; inhibition at 10 µM (SK-MEL-5): 17.7%; inhibition at 10 µM (SN12C): 38.8%; inhibition at 10 µM (SNB-19): 43.1%; inhibition at 10 µM (SNB-75): 48.8%; inhibition at 10 µM (SR): 115%; inhibition at 10 µM (U251): 45%; inhibition at 10 µM (UACC-257): 19%
